According to ChEMBL document CHEMBL3763146 (J Med Chem, 2016):

Legend:
[1] = molecular target: Beta-3 adrenergic receptor (Canis lupus familiaris, UniProt O02662); assay: Agonist activity at dog beta3 adrenergic receptor expressed in CHO cells assessed as accumulation of cAMP after 30 mins by TR-FRET assay; type: functional, cell-based
[2] = molecular target: T1, Beta-3 adrenergic receptor (Homo sapiens, UniProt P13945); assay: Agonist activity at human adrenergic beta3 receptor expressed in CHO cells assessed as accumulation of cAMP after 30 mins by TR-FRET assay in presence of 40% serum relative to (R)-(-)-isoproterenol; type: functional, cell-based
T1 sequence (P13945 whole entry, looked up): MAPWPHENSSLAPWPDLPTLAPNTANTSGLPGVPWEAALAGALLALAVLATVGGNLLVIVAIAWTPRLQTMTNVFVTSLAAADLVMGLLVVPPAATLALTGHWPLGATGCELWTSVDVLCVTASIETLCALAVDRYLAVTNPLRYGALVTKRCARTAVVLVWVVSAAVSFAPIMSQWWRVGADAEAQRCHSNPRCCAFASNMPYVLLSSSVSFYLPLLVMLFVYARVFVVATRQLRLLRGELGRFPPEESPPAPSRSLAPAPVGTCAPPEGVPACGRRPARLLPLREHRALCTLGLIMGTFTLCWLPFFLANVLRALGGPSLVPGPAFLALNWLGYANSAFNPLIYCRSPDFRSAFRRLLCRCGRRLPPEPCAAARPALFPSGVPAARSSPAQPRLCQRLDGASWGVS

[3] = molecular target: Beta-3 adrenergic receptor (Macaca mulatta) (UniProt Q28524); assay: Agonist activity at rhesus monkey beta3 adrenergic receptor expressed in CHO cells assessed as accumulation of cAMP after 30 mins by TR-FRET assay in presence of 40% serum relative to (R)-(-)-isoproterenol; type: functional, cell-based
Sequence of Beta-3 adrenergic receptor (Macaca mulatta) (Q28524 whole entry): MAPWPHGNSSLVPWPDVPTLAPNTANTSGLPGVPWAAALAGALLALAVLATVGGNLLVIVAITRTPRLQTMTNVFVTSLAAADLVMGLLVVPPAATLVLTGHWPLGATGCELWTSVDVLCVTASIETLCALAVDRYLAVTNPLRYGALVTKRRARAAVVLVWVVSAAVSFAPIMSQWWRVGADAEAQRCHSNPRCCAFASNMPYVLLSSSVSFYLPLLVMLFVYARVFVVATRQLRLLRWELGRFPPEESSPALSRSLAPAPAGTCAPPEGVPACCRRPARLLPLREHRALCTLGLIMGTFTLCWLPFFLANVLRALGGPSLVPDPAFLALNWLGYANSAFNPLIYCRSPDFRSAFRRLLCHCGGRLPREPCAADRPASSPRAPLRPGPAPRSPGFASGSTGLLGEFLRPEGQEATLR

[4] = Induction of phospholidosis in human HepG2 cells incubated overnight by […] in presence of fluorescent labeled phospholipid probe NBD-PE; type: cell-based; settings: read-out: A50
[5] = molecular target: Sodium-dependent serotonin transporter (Homo sapiens, UniProt P31645); assay: Inhibition of human SERT expressed in HEK293 cells preincubated for 30 mins followed by fluorescent substrate addition measured after 30 mins by plate reader analysis; type: cell-based
[6] = Distribution coefficient, logD of the compound at pH 7.4; type: physicochemical; settings: octanol/water
[7] = molecular target: Voltage-dependent L-type calcium channel subunit alpha-1C (Homo sapiens, UniProt Q13936); assay: Displacement of [3H]-diltiazem from human Cav1.2 channel
Sequence of Voltage-dependent L-type calcium channel subunit alpha-1C (Q13936 whole entry): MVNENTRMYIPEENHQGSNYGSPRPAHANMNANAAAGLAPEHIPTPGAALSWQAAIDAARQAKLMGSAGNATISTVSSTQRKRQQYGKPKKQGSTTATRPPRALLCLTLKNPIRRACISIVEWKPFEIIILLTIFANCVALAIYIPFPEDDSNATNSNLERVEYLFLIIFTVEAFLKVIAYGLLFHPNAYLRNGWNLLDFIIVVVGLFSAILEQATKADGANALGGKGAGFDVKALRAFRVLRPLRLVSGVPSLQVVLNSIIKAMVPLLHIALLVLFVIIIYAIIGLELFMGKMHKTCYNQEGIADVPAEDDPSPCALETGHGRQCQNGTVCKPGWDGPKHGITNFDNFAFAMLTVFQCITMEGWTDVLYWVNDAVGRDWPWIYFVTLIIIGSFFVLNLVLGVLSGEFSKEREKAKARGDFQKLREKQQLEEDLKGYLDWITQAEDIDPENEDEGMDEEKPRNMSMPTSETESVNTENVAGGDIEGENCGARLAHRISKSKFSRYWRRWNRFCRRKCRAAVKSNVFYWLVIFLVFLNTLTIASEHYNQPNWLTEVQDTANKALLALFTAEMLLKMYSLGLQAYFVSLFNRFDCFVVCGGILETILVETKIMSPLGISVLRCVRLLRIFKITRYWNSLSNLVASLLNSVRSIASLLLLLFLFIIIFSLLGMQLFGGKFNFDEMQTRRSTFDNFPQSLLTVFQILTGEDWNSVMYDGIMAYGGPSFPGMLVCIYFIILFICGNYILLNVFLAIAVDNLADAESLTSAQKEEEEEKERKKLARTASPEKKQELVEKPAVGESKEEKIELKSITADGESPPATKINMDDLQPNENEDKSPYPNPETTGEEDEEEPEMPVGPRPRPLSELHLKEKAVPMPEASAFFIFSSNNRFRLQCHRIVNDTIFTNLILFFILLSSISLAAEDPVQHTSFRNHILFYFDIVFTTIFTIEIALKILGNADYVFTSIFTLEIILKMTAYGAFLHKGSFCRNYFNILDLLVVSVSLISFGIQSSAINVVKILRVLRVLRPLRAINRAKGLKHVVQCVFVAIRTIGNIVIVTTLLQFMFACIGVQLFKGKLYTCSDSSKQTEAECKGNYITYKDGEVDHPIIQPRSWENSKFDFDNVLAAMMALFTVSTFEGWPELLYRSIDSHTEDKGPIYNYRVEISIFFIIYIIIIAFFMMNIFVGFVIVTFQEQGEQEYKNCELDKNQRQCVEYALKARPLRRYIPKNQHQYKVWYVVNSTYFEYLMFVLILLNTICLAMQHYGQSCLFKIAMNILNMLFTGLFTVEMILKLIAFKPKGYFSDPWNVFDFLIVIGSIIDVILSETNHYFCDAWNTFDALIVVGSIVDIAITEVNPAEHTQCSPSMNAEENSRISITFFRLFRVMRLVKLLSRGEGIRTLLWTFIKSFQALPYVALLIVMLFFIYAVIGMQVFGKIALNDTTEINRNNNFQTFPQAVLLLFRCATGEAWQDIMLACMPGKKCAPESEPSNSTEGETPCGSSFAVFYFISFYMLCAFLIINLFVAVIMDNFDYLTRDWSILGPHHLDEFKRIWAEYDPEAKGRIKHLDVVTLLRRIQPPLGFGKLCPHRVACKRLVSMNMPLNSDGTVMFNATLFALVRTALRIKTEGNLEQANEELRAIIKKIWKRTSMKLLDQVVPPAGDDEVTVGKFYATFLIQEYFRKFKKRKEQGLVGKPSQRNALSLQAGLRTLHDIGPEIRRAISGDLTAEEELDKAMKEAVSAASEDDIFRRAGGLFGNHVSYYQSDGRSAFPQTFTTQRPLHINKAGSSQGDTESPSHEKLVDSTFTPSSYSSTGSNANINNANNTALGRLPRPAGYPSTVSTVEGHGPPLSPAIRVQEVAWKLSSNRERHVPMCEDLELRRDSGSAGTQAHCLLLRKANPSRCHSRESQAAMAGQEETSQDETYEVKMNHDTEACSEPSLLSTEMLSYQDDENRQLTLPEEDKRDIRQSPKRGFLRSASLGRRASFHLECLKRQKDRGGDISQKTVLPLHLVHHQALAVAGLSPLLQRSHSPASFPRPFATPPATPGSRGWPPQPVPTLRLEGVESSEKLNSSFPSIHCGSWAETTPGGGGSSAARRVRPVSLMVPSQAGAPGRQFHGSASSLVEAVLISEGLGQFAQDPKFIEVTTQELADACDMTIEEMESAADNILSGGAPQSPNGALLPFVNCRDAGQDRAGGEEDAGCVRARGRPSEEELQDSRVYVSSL

[8] = molecular target: Voltage-gated inwardly rectifying potassium channel KCNH2 (Homo sapiens, UniProt Q12809); assay: Binding affinity to human ERG channel
Sequence of Voltage-gated inwardly rectifying potassium channel KCNH2 (Q12809 whole entry): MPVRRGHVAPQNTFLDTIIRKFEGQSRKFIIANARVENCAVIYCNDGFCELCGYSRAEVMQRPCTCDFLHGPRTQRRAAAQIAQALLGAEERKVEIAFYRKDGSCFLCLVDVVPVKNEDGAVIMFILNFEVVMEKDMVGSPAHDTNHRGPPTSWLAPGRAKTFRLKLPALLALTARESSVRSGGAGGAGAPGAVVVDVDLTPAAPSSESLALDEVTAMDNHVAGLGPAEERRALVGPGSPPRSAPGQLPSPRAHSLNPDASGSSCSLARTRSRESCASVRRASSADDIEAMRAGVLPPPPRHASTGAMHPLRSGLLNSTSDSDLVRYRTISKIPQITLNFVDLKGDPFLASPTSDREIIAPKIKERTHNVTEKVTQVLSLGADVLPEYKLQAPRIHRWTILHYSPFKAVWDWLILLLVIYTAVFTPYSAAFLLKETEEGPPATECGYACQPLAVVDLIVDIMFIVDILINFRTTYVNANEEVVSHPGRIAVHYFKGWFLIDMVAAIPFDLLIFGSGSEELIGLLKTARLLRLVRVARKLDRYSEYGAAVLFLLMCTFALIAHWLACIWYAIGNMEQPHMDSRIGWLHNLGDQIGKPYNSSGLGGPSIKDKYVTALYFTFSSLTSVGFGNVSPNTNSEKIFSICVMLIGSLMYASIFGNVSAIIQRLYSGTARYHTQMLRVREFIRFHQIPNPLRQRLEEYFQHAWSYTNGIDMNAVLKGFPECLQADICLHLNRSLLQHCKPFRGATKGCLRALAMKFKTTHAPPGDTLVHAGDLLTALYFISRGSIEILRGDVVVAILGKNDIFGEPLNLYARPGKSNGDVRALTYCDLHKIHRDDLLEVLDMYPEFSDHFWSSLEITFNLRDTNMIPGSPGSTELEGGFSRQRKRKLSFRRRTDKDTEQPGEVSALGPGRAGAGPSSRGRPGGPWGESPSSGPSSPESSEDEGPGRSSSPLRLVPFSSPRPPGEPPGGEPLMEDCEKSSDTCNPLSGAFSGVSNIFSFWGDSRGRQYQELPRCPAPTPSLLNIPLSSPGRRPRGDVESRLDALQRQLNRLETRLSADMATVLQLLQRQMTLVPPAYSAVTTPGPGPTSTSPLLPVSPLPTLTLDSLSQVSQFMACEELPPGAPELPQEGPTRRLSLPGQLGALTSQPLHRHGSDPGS

Cytochrome P450 3A4 = Cytochrome P450 3A4 (Homo sapiens, UniProt P08684); assay: Inhibition of CYP3A4 in human liver microsomes assessed as testosterone 6beta-hydroxylation; type: ADME
Cytochrome P450 2D6 = Cytochrome P450 2D6 (Homo sapiens, UniProt P10635); assay: Inhibition of CYP2D6 in human liver microsomes assessed as dextraomethorphan O-demethylation; type: ADME
Cytochrome P450 2C9 = Cytochrome P450 2C9 (Homo sapiens, UniProt P11712); assay: Inhibition of CYP2C9 in human liver microsomes assessed as diclofenac alpha'-hydroxylation; type: ADME
Sequence of Cytochrome P450 2C9 (P11712 whole entry): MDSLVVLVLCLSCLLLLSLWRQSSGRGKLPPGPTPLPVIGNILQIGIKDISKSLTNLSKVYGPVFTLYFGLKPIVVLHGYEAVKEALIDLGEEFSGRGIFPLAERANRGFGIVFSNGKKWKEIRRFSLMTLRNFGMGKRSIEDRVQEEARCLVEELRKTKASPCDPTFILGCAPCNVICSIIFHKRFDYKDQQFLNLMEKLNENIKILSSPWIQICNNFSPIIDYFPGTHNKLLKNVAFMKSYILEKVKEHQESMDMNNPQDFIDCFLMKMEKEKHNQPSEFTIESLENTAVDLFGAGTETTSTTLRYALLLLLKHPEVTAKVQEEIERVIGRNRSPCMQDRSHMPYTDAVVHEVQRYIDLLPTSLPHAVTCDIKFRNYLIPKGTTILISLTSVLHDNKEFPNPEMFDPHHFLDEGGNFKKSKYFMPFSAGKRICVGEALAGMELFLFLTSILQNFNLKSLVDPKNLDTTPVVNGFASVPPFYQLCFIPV

[9] = molecular target: T1, Beta-3 adrenergic receptor; assay: Agonist activity at human beta3 adrenergic receptor expressed in CHO cells assessed as accumulation of cAMP after 30 mins by TR-FRET assay relative to (R)-(-)-isoproterenol; type: functional, cell-based
Rattus norvegicus [10] = assay: Unbound clearance in rat at 1 mg/kg, iv or 2 mg/kg, po; type: ADME, organism-based; settings: in vivo
Canis familiaris [11] = assay: Unbound clearance in dog at 0.5 mg/kg, iv or 2 mg/kg, po; type: ADME, organism-based, Canis lupus familiaris; settings: in vivo
Rhesus monkey [12] = assay: Unbound clearance in rhesus monkey at 0.5 mg/kg, iv or 2 mg/kg, po; type: ADME, organism-based, Macaca mulatta; settings: in vivo
Rattus norvegicus [13] = assay: Dose normalized total AUC in rat at 2 mg/kg, po; type: ADME, organism-based; settings: in vivo
Canis familiaris [14] = assay: Dose normalized total AUC in dog at 2 mg/kg, po; type: ADME, organism-based, Canis lupus familiaris; settings: in vivo
Rhesus monkey [15] = assay: Dose normalized total AUC in rhesus monkey at 2 mg/kg, po; type: ADME, organism-based, Macaca mulatta; settings: in vivo
[16] = Oral bioavailability in rat at 2 mg/kg; type: ADME, organism-based; settings: in vivo
[17] = Oral bioavailability in dog at 2 mg/kg; type: ADME, organism-based, Canis lupus familiaris; settings: in vivo
[18] = Oral bioavailability in rhesus monkey at 2 mg/kg; type: ADME, organism-based, Macaca mulatta; settings: in vivo
[19] = Fraction unbound in rat at 1 mg/kg, iv or 2 mg/kg, po; type: ADME, organism-based; settings: in vivo
[20] = Fraction unbound in dog at 0.5 mg/kg, iv or 2 mg/kg, po; type: ADME, organism-based, Canis lupus familiaris; settings: in vivo
[21] = Fraction unbound in rhesus monkey at 0.5 mg/kg, iv or 2 mg/kg, po; type: ADME, organism-based, Macaca mulatta; settings: in vivo
[22] = molecular target: Beta-3 adrenergic receptor (Rattus norvegicus, UniProt P26255); assay: Agonist activity at rat beta3 adrenergic receptor expressed in CHO cells assessed as accumulation of cAMP after 30 mins by TR-FRET assay; type: functional, cell-based
[23] = molecular target: Beta-3 adrenergic receptor (Rattus norvegicus) (UniProt P26255); assay: Agonist activity at rat beta3 adrenergic receptor expressed in CHO cells assessed as accumulation of cAMP after 30 mins by TR-FRET assay relative to (R)-(-)-isoproterenol; type: functional, cell-based
[24] = molecular target: T2, Beta-3 adrenergic receptor (Macaca mulatta, UniProt Q28524); assay: Agonist activity at rhesus monkey beta3 adrenergic receptor expressed in CHO cells assessed as accumulation of cAMP after 30 mins by TR-FRET assay; type: functional, cell-based
T2 sequence (Q28524 whole entry): as the sequence (Q28524 whole entry) above

[25] = molecular target: Beta-3 adrenergic receptor (Macaca mulatta) (UniProt Q28524); assay: Agonist activity at rhesus monkey beta3 adrenergic receptor expressed in CHO cells assessed as accumulation of cAMP after 30 mins by TR-FRET assay relative to (R)-(-)-isoproterenol; type: functional, cell-based
[26] = molecular target: T2, Beta-3 adrenergic receptor; assay: Agonist activity at rhesus monkey beta3 adrenergic receptor expressed in CHO cells assessed as accumulation of cAMP after 30 mins by TR-FRET assay in presence of 40% serum; type: functional, cell-based
[27] = Solubility of the compound in buffer at pH >= […]; type: physicochemical

Which EC50 [1] does the source give for `O=S(=O)(Nc1ccc(CCNC[C@H](O)c2cccnc2)cc1)c1ccc(-c2nc(-c3ccc(C(F)(F)F)cc3)cs2)cc1` here?
The EC50 was 25 nM.

And the max activation [2]?
Its max activation is 106%.

And the max activation [3]?
The max activation was 17%.

What about the AC50 [4] of the same compound?
Its AC50 is 560 nM.

What about the IC50 [5] of the same compound?
Its IC50 is 5000 nM.

And the logD [6]?
The logD was 4.7.

And the IC50 [7]?
The IC50 was 1700 nM.

And the IC50 [8]?
The IC50 was 220 nM.

And the IC50 (Cytochrome P450 3A4)?
The IC50 was 9300 nM.

And the IC50 (Cytochrome P450 2D6)?
The IC50 was 11000 nM.

And the IC50 (Cytochrome P450 2C9)?
Its IC50 is 24000 nM.

What about the max activation [9] of the same compound?
Its max activation is 93%.

And the CL free (Rattus norvegicus [10])?
Its CL free is greater than 3100 mL/min/kg.

What about the CL free (Canis familiaris [11]) of the same compound?
Its CL free is greater than 1000 mL/min/kg.

What about the CL free (Rhesus monkey [12]) of the same compound?
Its CL free is greater than 950 mL/min/kg.

And the AUC/dose (Rattus norvegicus [13])?
Its AUC/dose is 70 nM·h/mg/kg.

And the AUC/dose (Canis familiaris [14])?
The AUC/dose was 290 nM·h/mg/kg.

What about the AUC/dose (Rhesus monkey [15]) of the same compound?
Its AUC/dose is 50 nM·h/mg/kg.

What about the bioavailability [16] of the same compound?
The bioavailability was 17%.

And the bioavailability [17]?
Its bioavailability is 27%.

And the bioavailability [18]?
Its bioavailability is 4%.

And the fraction unbound [19]?
Its fraction unbound is no more than 0.02.

What about the fraction unbound [20] of the same compound?
Its fraction unbound is no more than 0.02.

What about the fraction unbound [21] of the same compound?
The fraction unbound was no more than 0.02.

What about the EC50 [22] of the same compound?
The EC50 was 3400 nM.

And the max activation [23]?
Its max activation is 17%.

And the EC50 [24]?
The EC50 was 0.43 nM.

What about the max activation [25] of the same compound?
The max activation was 81%.

What about the EC50 [26] of the same compound?
The EC50 was 17 nM.

And the solubility [27]?
Its solubility is less than 100 µg/mL.
